From patent US5919457A, “TXU-5/B53-PAP antiviral biotherapeutic agent for the treatment of AIDS” (priority 1996, dated 1999)
Values joined by “and” are separate entries in the source; they are usually repeats but may differ in a detail not shown here. Equal entries are not always repeated.

What was measured:
[1] = test system: HIV-1 isolate G-6912 (zidovudine-resistant); conditions: read-out: IC50 (concentration at which 50% of the reverse transcriptase activity is inhibited); cited from earlier work
HIV-1 [2] = test system: HIV-1; design: species or system Hu-PBL-SCID mice; conditions: mouse, in vivo
[3] = test system: HIV-1 isolate G-9106 (zidovudine-resistant); conditions: read-out: IC50 (concentration at which 50% of the reverse transcriptase activity is inhibited); cited from earlier work
HIV-1 [4] = test system: HIV-1; design: species or system Hu-PBL-SCID mice; conditions: mouse, in vivo; remark: listed apart in the source
Procedure: Mutant C.B 17 mice are used as model systems to examine the in vivo homing, engraftment, and growth patterns of normal and malignant human hematopoictic cells. Lapidot et al., Blood, 80, 32a (1992). […] Mosier et al., Science, 251, 791 (1991). […] Mosier et al., cited supra. Hu-PBL-SCID mice were generated as described previously. Mosier et al., cited supra. Non-toxic doses of TXU-5/B53-PAP (20%-50% of LD10) were administered intraperitoneally by injecting half of the total dose as a bolus and delivering the remainder i.p. over 2 weeks using Alzet micro-osmotic pumps.
Two weeks after infection with HIV-1, mice were electively killed and fresh peritoneal lavage cells as well as spleen cells were isolated, cocultured with phytohemagglutinin(PHA)-stimulated human peripheral blood mononuclear cells from an HIV-1 antibody negative donor, and culture supernatants were tested every 3-4 days for a maximum of 28 days for the presence of HIV-1 antigen with a commercially available enzyme immunoassay (Abbott Laboratories, North Chicago, Ill.) that detects primarily the core p24 antigen of HIV-1, as previously described. Goudsmit et al., J. Infectious Diseases, 155, 558 (1987). In addition to this culture method, DNA was also isolated from the peritoneal lavage cells as well as splenocytes for detection of HIV-1 DNA by PCR amplification of a 115 b.p. sequence in the gag region of the HIV-1 genome using two 29-base oligonucleotide primers, SK38 and SK39, that flank the region to be amplified. Ou C-Y et al., Science, 239, 295 (1988) DNA samples were also examined for the presence of human DNA by PCR amplification of a 110-bp fragment from the first exon of the human β-globin gene using two 20-base oligonucleotide primers, PCO3 and PCO4, that flank the region to be amplified, as previously described by Uckun et al. in Blood, 79, 2201 (1992).

Cc1cn([C@H]2C[C@H](N=[N+]=[N-])[C@@H](CO)O2)c(=O)[nH]c1=O [ZDV, zidovudine]
IC50 [1]: 1.5 µM
gp120 on CD4+ lymphocytes from the peritoneal cavity (flow cytometry) (HIV-1 [2]): presence of gpl120 on CD4+ cells
IC50 [3]: 8.7 µM
Hu-PBL-SCID mice HIV-1 negative (HIV-1 [4]): 3 of 10
PCR + Cx: mice PCR-positive and culture-positive (footnote c) (HIV-1 [4]): 4/8 and 4
PCR + Cx: mice PCR-positive but culture-negative (footnote b) (HIV-1 [4]): 4/8 and 3
PCR Only: PCR- mice/analyzed (HIV-1 [4]): 2/2
Peritoneal Lavage Cells PCR+ (mice positive/analyzed) (HIV-1 [4]): 7/10
Peritoneal Lavage and Spleen Mixed Cx+ (cultures positive/analyzed) (HIV-1 [4]): 4/8
Spleen Cells PCR+ (mice positive/analyzed) (HIV-1 [4]): 5/10
